According to patent US10117940B2, “DPI formulation containing sulfoalkyl ether cyclodextrin” (CyDex Pharmaceuticals, Inc., priority 2004, dated 2018):

Columns and labels:
rats = conditions: inhaled aerosol composition, SBE-CD present alone; cited from earlier work
healthy volunteers = conditions: nasal spray in aqueous sulfobutylether-beta-cyclodextrin buffer solution; cited from earlier work
[1] = Electrostatic charge measurement with Faraday cage apparatus; assay type: physicochemical; conditions: for Electrostatic charge of active agent, Approx. Magnitude: exemplary active agent of the charge range
Protocol: Determination of the electrostatic charge of the SAE-CD-containing carrier and the active agent-containing composition.
Electrostatic charge measurements were performed using a Faraday Cage apparatus that determines the potential difference changes as a function of time during powder flow onto a conducting surface. Samples were weighed and transferred from original containers to wax coated weighing papers. These were mounted to a vibrating spatula (set at maximum vibration level). The angle of the spatula was set at a constant angle (30 degrees). Powder was dispensed to the Faraday cage that was connected to a electrometer. Data collection was performed using Windaq interface and a PC computer sampling at 240 Hz. The area under the electrostatic dissipation curve was determined (Voltage×time) and charge (nC/g) was calculated from the known resistance of the setup.

sulfobutyl ether derivative of beta cyclodextrin [SBE-CD]
Toxicity (rats): non-toxic

Cc1ncc2n1-c1ccc(Cl)cc1C(c1ccccc1F)=NC2 [midazolam]
Side effects (healthy volunteers): No serious side effects

O=C(O)c1cc(=O)c2c(OCC(O)COc3cccc4oc(C(=O)O)cc(=O)c34)cccc2o1 [Na Cromolyn, sodium cromolyn]
Polarity and magnitude of electrostatic charge (in words) [1]: electroneutral
Electrostatic charge of active agent, Approx. Magnitude [1]: −2 to −0.5 nC/g
Electrostatic charge ([1]; micronized for inhalation): −1 to −1.7 nC/g

CC(C)(C)NCC(O)c1ccc(O)c(CO)c1 (stereo not drawn) [Albuterol, alpha^1-(((1,1-dimethylethyl)amino)methyl)-4-hydroxy-1,3-benzenedimethanol]
Polarity and magnitude of electrostatic charge (in words) [1]: high positive charge
Electrostatic charge of active agent, Approx. Magnitude [1]: >4 nC/g
